Test results as given in patent publication US5047397A, “Linear analogs of atrial natriuretic peptides” (California Biotechnology Inc., priority 1988, dated 1991).
“Also recorded” adds a separate entry of the source. Where a SMILES comes first, the peptide text is derived from it. Bridges are numbered along the chain shown (N, C = ends). Where no end group is shown, it is not given here.

Columns and labels:
anesthetized rats [1] = experiment: Blood pressure responses in anesthetized rats; format: in vivo, rat; details: infusion 733 p mol/kg/min
anesthetized rats [2] = experiment: Diuresis in anesthetized rats; format: in vivo, rat; details: for urine flow rate (urine volume), diuretic response: infused at 5 mcg/min via femoral vein, versus baseline, FIG. 3
Method: In one set of examples, cannulae were placed in the left and right ureters and femoral vein of anesthetized rats and urine was collected from the ureters. Analog peptides were administered via the femoral vein. Prior to infusing the analog peptides, saline was infused for 30 minutes, urine was collected for 6 five-minute baseline periods and urine volume was determined gravimetrically. Following these baseline collection periods, various analog peptides were infused for 30 or 60 minutes and urine volume was measured in five-minute periods during infusion and for 60 minutes following infusion (at which time rats were returned to saline). Data was examined by averaging urine flow rates for six five-minute baseline control periods immediately preceding infusion, and comparing values during and after administration of peptides with the "baseline" control values. Responses to peptides are thus evaluated and plotted as the percent of baseline control responses. Specific examples are shown in FIGS. 3A-H. The error bars at the beginning of the graphs represent baseline values +standard deviations. Responses to peptides that are substantially above baseline ±SD can thus be interpreted as being statistically significant increases.

[3] = molecular target: T1, specific ANP receptor sites on BASM or BAE cells (Bos taurus, UniProt P10730); experiment: Competitive displacement receptor binding of (125I)-rANP(126-150) on cultured cells; parameters: species or system bovine; details: for Ki: Table 2A, unit not given, in nM
T1 construct: specific receptor sites on BASM or BAE cells; endogenous in cells; host or cells: cultured BASM and BAE cells
T1 sequence (P10730 42-537): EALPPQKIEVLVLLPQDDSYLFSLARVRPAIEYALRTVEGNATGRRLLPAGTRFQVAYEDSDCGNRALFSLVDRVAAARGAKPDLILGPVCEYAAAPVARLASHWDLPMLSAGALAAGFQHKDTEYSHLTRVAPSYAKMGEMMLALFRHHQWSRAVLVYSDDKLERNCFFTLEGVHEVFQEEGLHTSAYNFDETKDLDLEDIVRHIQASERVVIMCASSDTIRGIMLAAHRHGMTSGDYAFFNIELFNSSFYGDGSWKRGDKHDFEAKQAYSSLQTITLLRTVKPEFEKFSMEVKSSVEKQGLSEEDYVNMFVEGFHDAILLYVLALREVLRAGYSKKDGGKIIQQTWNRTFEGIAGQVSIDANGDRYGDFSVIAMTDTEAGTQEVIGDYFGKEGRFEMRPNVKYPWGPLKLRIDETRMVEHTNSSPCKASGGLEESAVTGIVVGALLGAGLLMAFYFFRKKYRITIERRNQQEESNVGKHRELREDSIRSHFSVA
Text: Analogous "competitive displacement" receptor binding assays are considered commonplace in the art for examining specific ligand-receptor interactions.
Assuming these ANP analogs act at one or more ANP receptor sites, then increased receptor affinity should reflect increased biological potency.

[4] = test system: cortical-associated receptor sites of the kidney; experiment: Competition for specific (125I)-rANP(123-150) binding in the kidney; parameters: species or system rat; details: competitor 10^-7 M, tracer 4 × 10^-12 M, n=3; for RATIO OF BOUND/FREE (125I)-rANP(123-150), Whole Kidney: tracer alone 122 ± 46; for RATIO OF BOUND/FREE (125I)-rANP(123-150), Outer Cortex: tracer alone 176 ± 23
[5] = test system: isolated perfused rat kidney; experiment: Natriuresis and diuresis in the isolated perfused rat kidney; details: for FENa (fractional sodium excretion) / FF (filtration fraction) / GFR (glomerular filtration rate) / RVR (renal vascular resistance) / UNa V (urinary sodium excretion rate) / V (urine flow rate): N=4
Text: The results are in Table 2C.

[6] = test system: pentobarbital-anesthetized dogs; experiment: Diuresis and natriuresis in anesthetized dogs; format: in vivo, dog
Method: In these examples, cannulae were placed in the left and right ureters and femoral vein of anesthetized dogs and urine was collected from the ureters. Analog peptides were administered via the femoral vein. Prior to infusing analog peptides, saline was infused for 30 minutes and urine was then collected for three ten-minute collection periods. Urine volume was determined gravimetrically and urine sodium was determined photometrically.
Following these three baseline collection periods, the selected analog peptides were infused for 60 minutes and urinary flow was measured for an additional 60 minutes following infusion. During infusion (60 minutes) and recovery (60 minutes), ten-minute collection periods were obtained. Control animals which received only saline were studied in parallel.
Data were examined by comparing urine flow rates for dogs infused with peptides AP101 (3 mcg/kg/min), AP306 (3 mcg/kg/min), AP324 (3 mcg/kg/min),or AP314 (1 mcg/kg/min) against control animals infused with saline.

[7] = [C] period of section D: AP57 10^-7 M present, before rANP(123-150)
[8] = rANP(123-150) 10^-8 M in presence of AP57 10^-7 M
[9] = rANP(123-150) 10^-8 M, mean ± SE
[10] = rANP(123-150) 10^-9 M in presence of AP57 10^-7 M
[11] = rANP(123-150) 10^-9 M, mean ± SE
[12] = rANP(123-150) 10^-10 M in presence of AP57 10^-7 M
[13] = rANP(123-150) 10^-10 M, mean ± SE
[14] = rANP(123-150) 10^-11 M in presence of AP57 10^-7 M
[15] = rANP(123-150) 10^-11 M, mean ± SE

CC[C@H](C)[C@@H]1NC(=O)[C@H](CCCNC(=N)N)NC(=O)[C@H](CC(=O)O)NC(=O)[C@H]([C@@H](C)CC)NC(=O)[C@H](CCCNC(=N)N)NC(=O)CNC(=O)CNC(=O)[C@H](Cc2ccccc2)NC(=O)[C@@H](NC(=O)[C@H](CO)NC(=O)[C@H](CO)NC(=O)[C@@H](N)CCCNC(=N)N)CSSC[C@@H](C(=O)N[C@@H](CC(N)=O)C(=O)N[C@@H](CO)C(=O)N[C@@H](Cc2ccccc2)C(=O)N[C@@H](CCCNC(=N)N)C(=O)N[C@@H](Cc2ccc(O)cc2)C(=O)O)NC(=O)[C@H](C)NC(=O)CNC1=O [AP20, R--S--S--C--F--G--G--R--I--D--R--I--G--A--C--N--S--F--R--Y] (H-RSSCFGGRIDRIGACNSFRY-OH; disulfide 4-15)
Blood Pressure (anesthetized rats [1]): -34 ± 3
urine flow rate (urine volume), diuretic response (anesthetized rats [2]): significantly increased
Ki [3]: 7.50

CC[C@H](C)[C@@H]1NC(=O)[C@H](CCCNC(=N)N)NC(=O)[C@H](CC(=O)O)NC(=O)[C@H]([C@@H](C)CC)NC(=O)[C@H](CCCNC(=N)N)NC(=O)CNC(=O)CNC(=O)[C@H](Cc2ccccc2)NC(=O)[C@@H](NC(=O)[C@H](CO)NC(=O)[C@H](CO)NC(=O)[C@@H](N)CCCNC(=N)N)CSSC[C@@H](C(N)=O)NC(=O)[C@H](C)NC(=O)CNC1=O [AP57, R-S-S-C-F-G-G-R-I-D-R-I-G-A-C-NH2] (H-RSSCFGGRIDRIGAC-NH2; disulfide 4-15)
in vivo diuretic/natriuretic activity in rats, in words (anesthetized rats [2]; dose not stated): natriuretic and diuretic activities
Ki [3]: 8.2
RATIO OF BOUND/FREE (125I)-rANP(123-150), Whole Kidney [4]: 1.27 ± 0.32
RATIO OF BOUND/FREE (125I)-rANP(123-150), Outer Cortex [4]: 1.68 ± 0.44
natriuretic/diuretic activity in the isolated perfused rat kidney, in words ([5]; 10^-7 M): not active
FENa (fractional sodium excretion) ([5]; AP57 10^-7 M alone, mean ± SE): 0.24 ± 0.08%
FF (filtration fraction) ([5]; AP57 10^-7 M alone, mean ± SE): 1.37 ± 0.22%
GFR (glomerular filtration rate) ([5]; AP57 10^-7 M alone, mean ± SE): 0.55 ± 0.07 mL/min
RVR (renal vascular resistance) ([5]; AP57 10^-7 M alone, mean ± SE): 2.27 ± 0.17 mmHg/ml/min
UNa V (urinary sodium excretion rate) ([5]; AP57 10^-7 M alone, mean ± SE): 0.17 ± 0.04 uEq/min
V (urine flow rate) ([5]; AP57 10^-7 M alone, mean ± SE): 13.8 ± 2.0 µL/min
FENa (fractional sodium excretion) [5, 7]: 0.18 ± 0.04%
FF (filtration fraction) [5, 7]: 1.57 ± 0.27%
GFR (glomerular filtration rate) [5, 7]: 0.65 ± 0.06 mL/min
RVR (renal vascular resistance) [5, 7]: 2.21 ± 0.21 mmHg/ml/min
UNa V (urinary sodium excretion rate) [5, 7]: 0.17 ± 0.05 uEq/min
V (urine flow rate) [5, 7]: 16.3 ± 2.0 µL/min
modulation of renal responses to rANP(123-150), in words ([5]; pretreatment of the isolated kidney with 10^-7 M AP57): increased the potency of rANP(123-150)

AFGGRIDRIGA-NH2 [AP101, A--F--G--G--R--I--D--R--I--G--A--NH2]
Peak Urine Flow Rate V ([6]; 3 mcg/kg/min infused 60 min, *P<0.05, control 0.61): 1.77 mL/min
urine flow rate and urinary sodium excretion (diuresis, natriuresis), in words ([6]; 3 mcg/kg/minute infusion): cause diuresis; also recorded: significantly increased
urine flow rate (urine volume), diuretic response (anesthetized rats [2]): induce diuresis; also recorded: significantly increased
Ki(app) ([3]; concentration of unlabeled peptide displacing 50% of maximal binding of 0.5 nM (125I)-rANP(126-150), BASM or BAE cells): 2.63 nM
prevention of (125I)-rANP(126-150) binding to BASM cell-associated receptors (FIG. 2) ([3]; increasing concentrations of unlabeled peptide, BASM cells): effectively prevent

rANP(123-150): sequence of ANP(126-150) which includes 3 additional upstream amino acids of the naturally occurring peptide (SLRRSSCFGGRIDRIGAQSGLGCNSFRY; not fully specified; ends and bridges not checked; UniProt P01161 123-150, looked up, fragment)
RATIO OF BOUND/FREE (125I)-rANP(123-150), Whole Kidney [4]: 0.63 ± 0.27
RATIO OF BOUND/FREE (125I)-rANP(123-150), Outer Cortex [4]: 0.77 ± 0.30
FENa (fractional sodium excretion) [5, 8]: 4.77 ± 1.22%
FF (filtration fraction) [5, 8]: 2.30 ± 0.47%
GFR (glomerular filtration rate) [5, 8]: 0.84 ± 0.13 mL/min
RVR (renal vascular resistance) [5, 8]: 2.63 ± 0.33 mmHg/ml/min
UNa V (urinary sodium excretion rate) [5, 8]: 6.47 ± 2.29 uEq/min
V (urine flow rate) [5, 8]: 132 ± 33 µL/min
FENa (fractional sodium excretion) [5, 9]: 4.12 ± 0.94%
FF (filtration fraction) [5, 9]: 2.23 ± 0.44%
GFR (glomerular filtration rate) [5, 9]: 0.80 ± 0.08 mL/min
RVR (renal vascular resistance) [5, 9]: 2.66 ± 0.32 mmHg/ml/min
UNa V (urinary sodium excretion rate) [5, 9]: 4.78 ± 1.15 uEq/min
V (urine flow rate) [5, 9]: 96.6 ± 24.0 µL/min
FENa (fractional sodium excretion) [5, 10]: 4.08 ± 0.72%
FF (filtration fraction) [5, 10]: 2.81 ± 0.40%
GFR (glomerular filtration rate) [5, 10]: 0.99 ± 0.07 mL/min
RVR (renal vascular resistance) [5, 10]: 2.79 ± 0.34 mmHg/ml/min
UNa V (urinary sodium excretion rate) [5, 10]: 6.03 ± 1.37 uEq/min
V (urine flow rate) [5, 10]: 139 ± 14 µL/min
FENa (fractional sodium excretion) [5, 11]: 2.78 ± 0.89%
FF (filtration fraction) [5, 11]: 2.30 ± 0.41%
GFR (glomerular filtration rate) [5, 11]: 0.82 ± 0.07 mL/min
RVR (renal vascular resistance) [5, 11]: 2.64 ± 0.35 mmHg/ml/min
UNa V (urinary sodium excretion rate) [5, 11]: 3.22 ± 0.92 uEq/min
V (urine flow rate) [5, 11]: 74.0 ± 14.8 µL/min
FENa (fractional sodium excretion) [5, 12]: 1.33 ± 0.20%
FF (filtration fraction) [5, 12]: 2.65 ± 0.20%
GFR (glomerular filtration rate) [5, 12]: 0.93 ± 0.04 mL/min
RVR (renal vascular resistance) [5, 12]: 2.80 ± 0.31 mmHg/ml/min
UNa V (urinary sodium excretion rate) [5, 12]: 1.76 ± 0.25 uEq/min
V (urine flow rate) [5, 12]: 70.6 ± 4.2 µL/min
FENa (fractional sodium excretion) [5, 13]: 1.21 ± 0.44%
FF (filtration fraction) [5, 13]: 1.76 ± 0.29%
GFR (glomerular filtration rate) [5, 13]: 0.66 ± 0.07 mL/min
RVR (renal vascular resistance) [5, 13]: 2.51 ± 0.26 mmHg/ml/min
UNa V (urinary sodium excretion rate) [5, 13]: 1.13 ± 0.43 uEq/min
V (urine flow rate) [5, 13]: 35.5 ± 5.7 µL/min
FENa (fractional sodium excretion) [5, 14]: 0.41 ± 0.11%
FF (filtration fraction) [5, 14]: 2.04 ± 0.15%
GFR (glomerular filtration rate) [5, 14]: 0.80 ± 0.08 mL/min
RVR (renal vascular resistance) [5, 14]: 2.50 ± 0.15 mmHg/ml/min
UNa V (urinary sodium excretion rate) [5, 14]: 0.45 ± 0.10 uEq/min
V (urine flow rate) [5, 14]: 31.0 ± 3.7 µL/min
FENa (fractional sodium excretion) [5, 15]: 0.72 ± 0.19%
FF (filtration fraction) [5, 15]: 1.33 ± 0.20%
GFR (glomerular filtration rate) [5, 15]: 0.53 ± 0.04 mL/min
RVR (renal vascular resistance) [5, 15]: 2.36 ± 0.20 mmHg/ml/min
UNa V (urinary sodium excretion rate) [5, 15]: 0.53 ± 0.14 uEq/min
V (urine flow rate) [5, 15]: 21.8 ± 1.7 µL/min
